The text below walks through data of patent US7411002B2, “Polycationic sulfonamides and use thereof” (priority 2006, dated 2008).

For data set [1], the system named is LPS-induced nitric oxide production in murine macrophage J774A.1 cells. Nature of the data set: NO inhibition (Griess nitrite assay) in LPS-stimulated murine macrophage J774A.1 cells. It is filed as cell-based. Particulars: Mus musculus, J774.A1, 10 ng/ml LPS, 16 h. Here is the method: Assessment of neutralization of LPS toxicity: NO inhibition activity. Nitric oxide production is measured as total nitrite in murine macrophage J774A.1 cells using the Griess assay^70 as described previously.^71 J774A.1 cells are plated at ˜10^5/ml in a volume of 40 μl/well, in 384-well, flat-bottomed, cell culture treated microtiter plates and subsequently stimulated with 10 ng/ml lipopolysaccharide (LPS). Concurrent to LPS stimulation, serially diluted concentrations of test compounds are added to the cell medium and left to incubate for 16 h. Polymyxin B is used as reference compound in each plate. Positive-(LPS stimulation only) and negative-controls (J774A.1 medium only) are included in each experiment. Nitrite concentrations are measured by adding 40 μl of supernatant to equal volumes of Griess reagents (50 μl/well; 0.1% NED solution in ddH2O and 1% sulfanilamide, 5% phosphoric acid solution in ddH2O) and incubating for 15 minutes at room temperature in the dark. Absorbance at 535 nm is measured using a Molecular Devices Spectramax M2 multifunction plate reader (Sunnyvale, Calif.). Nitrite concentrations are interpolated from standard curves obtained from serially diluted sodium nitrite standards. IC50 values are determined for compounds that neutralize LPS inhibit NO production in a dose-dependent manner (Tables A-F). Results in this assay parallel those in the binding assay.
Background: Griess reagent forms a coloured azo dye with nitrite.

The test system of data set [2] is LPS-induced lethality in CF-1 mice. Kind of data set: Mouse lethality assay (D-galactosamine-sensitized mice, supralethal LPS challenge). The class given is in vivo. Particulars: FIG. 9; for mice protected from LPS lethality: 200 μg/mouse compound i.p., supralethal 200 ng LPS challenge, lethality at 24 h. The text has this: Compound MQTS 2358 represents spermine-sulfonamide Series A (SPM). Compound MQTS 2383 represents homologated spermine-sulfonamide Series B (HOMO-SPM). Compound MQTS 2389 represents branched homologated spermine-sulfonamide Series D (BRANCHED-HOMO-SPM). Also included in FIG. 9 are positive control compounds MQTS 3938 and MQTS 3942 (L-Lys(C18-alkyl)-spermine and D-Lys(C18-alkyl)-spermine, respectively) previously reported.^60 As shown in this figure, i.p. dosing with these compounds affords significant protection from super-lethal challenges with LPS in this model. Dosages of 200 μg/mouse) protected 5 out of 5 mice with all compounds except MQT 2389 which appears to have toxic effects above 50 μg/mouse dosages. Furthermore, treatment with lower dosages of these compounds also affords significant protection from the toxic effects of LPS.
Mouse lethality experiments: Female, outbred, 9- to 11-week-old CF-1 mice (Charles River, Wilmington, Mass.) weighing 22-28 g are used as described elsewhere.^71 Upon arrival, the mice are allowed to acclimatize for a week prior to experimentation, housed 5 per cage in a controlled environment at the AALAC-accredited University of Kansas Animal Care Facility, and allowed access to mouse chow and water ad libitum. The animals are sensitized to the lethal effects of LPS by D-galactosamine.^74-76 The lethal dose causing 100% mortality (LD100) dose of the batch of LPS used (E. coli 0111:B4 procured from Sigma) is first determined by administering D-galactosamine (800 mg/kg) and LPS (0, 10, 20, 50, 100, 200 ng/mouse) as a single injection intraperitoneally (i.p.) in freshly prepared saline to batches of five animals in a volume of 0.2 ml. […] In experiments designed to test dose-response effects of the polycationic sulfonamides in affording protection against LPS-induced lethality, mice received graded doses of compound diluted in saline, i.p., in one flank, immediately before a supralethal (200 ng) LPS challenge, which is administered as a separate i.p. injection into the other flank. In experiments in which the temporal window of protection is to be examined, a fixed dose of 200 μg/mouse of compound is administered at various times, before, or after supralethal (200 ng/mouse) LPS challenge. Lethality is determined at 24 h post LPS challenge.

In data set [3] the test system is LPS-induced NF-κB induction in human embryonic kidney 293 cells cotransfected with TLR4, CD14 and MD2. Kind of data set: Inhibition of LPS induction of NF-κB (seAP reporter) in HEK 293 cells cotransfected with TLR4, CD14 and MD2. The class given is cell-based. Particulars: for IC50: Homo sapiens, HEK293, inhibition of LPS-induced NF-κB induction, HEK 293 TLR4/CD14/MD2 reporter cells, read-out: NFκβ inhibition IC50 value. The text has this: Assessment of Inhibition of Cytokine Induction (NF-κB): The inhibition of induction of NF-κB (a key transcripitional activator of the innate immune system, leading to uncontrolled cytokine release^72,73 which ultimately leads to multiple organ failure and the shock syndrome) is quantified using human embryonic kidney 293 cells cotransfected with TLR4 (LPS receptor), CD14 and MD2 (co-receptors), available from InvivoGen, Inc. (HEK-Bluetm, San Diego, Calif.), as per protocols provided by the vendor. Stable expression of secreted alkaline phosphatase (seAP) under control of NF-κB/AP-1 promoters is inducible by LPS, and extracellulare seAP in the supernatant is proportional to NF-κB induction. seAP is assayed spectrophotometrically using an alkaline phosphatase-specific chromogen at 620 nm using a rapid-throughput, automated protocol employing a Bio-Tek P2000 liquid handler. Results showing the ability of polycationic sulfonamide compounds to inhibit the induction of NF-κB by LPS are shown in Tables A-F.

Data set [4] is described as follows: Rapid-throughput BODIPY-TR cadaverine (BC) fluorescence displacement assay for binding affinity to LPS. Particulars: half-maximal effective displacement of BODIPY-TR cadaverine probe from LPS; 50 mM Tris buffer, pH 7.4; read-out: Binding affinity (BC displacement) ED50 value. Here is the method: Rapid-throughput Fluorescence Displacement Assay for quantifying binding affinities to LPS. […] Polymyxin B (PMB), a peptide antibiotic known to bind and neutralize LPS^65 serves as the positive control and reference compound for every plate, enabling the quantitative assessment of repeatability and reproducibility (CV and Z′ factors) for the assay. Automated liquid handling is performed on a Precision 2000 automated microplate pipetting system, programmed using the Precision Power software, Bio-Tek Instruments Inc., VT, USA. Results are reported as half-maximal effective displacement of probe (ED50) (Tables A-F). In all experiments, Polymyxin B (PMB), a decapeptide antibiotic, known to bind and neutralize LPS,^66-69 is used as a reference compound.

One may read the IC50 as the concentration that inhibits the measured activity by half. On to `CCCCCCCCCCCCCCCCS(=O)(=O)NCCCNCCCCNCCCN` [MQTS 2358], for which the values for the IC50 in data set [1] and in data set [3] were 450 nM and 280 nM, respectively. Moreover, the “mice protected from LPS lethality” value in data set [2] is given as 5 out of 5. Besides, the EC50 in data set [4] came to 3870 nM.

With `CCCCCCCCCCCCCCCCS(=O)(=O)NCCCNCCCNCCCCNCCCN` [MQTS 2383], the figures for the IC50 in data set [1] and in data set [3] were 120 nM and 200 nM, respectively. In addition, the “mice protected from LPS lethality” value in data set [2] was 5 out of 5. Also, the EC50 in data set [4] came out at 4710 nM.

As for `CCCCCCCCS(=O)(=O)NCCCN(CCCNCCCNCCCCNCCCN)CCCNS(=O)(=O)CCCCCCCC` [MQTS 2389, N^1-Bis[N-octanylsulfonyl-3-aminopropyl]-1,18-diamino-5,9,14-triazaoctadecane], the results for the IC50 in data set [1] and in data set [3] were 320 nM and 300 nM, respectively. The “dosage above which toxic effects appear” value in data set [2] (i.p. dosing in mouse lethality assay) is “above 50 μg/mouse”. For the same compound, in data set [4], the EC50 was 2620 nM.

As to `CCCCCCCCCCS(=O)(=O)NCCCN(CCCNCCCCNCCCN)CCCNS(=O)(=O)CCCCCCCCCC` [MQTS 2419, N^1-Bis[N-decanylsulfonyl-3-aminopropyl]-1,14-diamino-5,10-diazabutadecane], the values for the IC50 in data set [1] and in data set [3] were 1100 nM and 5170 nM, respectively. In addition, in data set [4], the EC50 stood at 2400 nM.

`CCCCCCCCCCCCS(=O)(=O)NCCCN(CCCNCCCCNCCCN)CCCNS(=O)(=O)CCCCCCCCCCCC` [MQTS 2420, N^1-Bis[N-dodecanylsulfonyl-3-aminopropyl]-1,14-diamino-5,10-diazabutadecane]: the 50% inhibitory concentration (IC50) in data set [1] was 2270 nM; in data set [3], 13200 nM. In addition, the EC50 in data set [4] came to 3980 nM.

Regarding `CCCCCCCC(=O)NCCCN(CCCNCCCCNCCCN)CCCNC(=O)CCCCCCC` [MQTS 2421], the IC50 in data set [1] was found to be 9020 nM; in data set [3], 9760 nM. In data set [3] (qualitative comparison with spermine-sulfonamide counterparts), the “activity in words (LPS binding / cell-based cytokine inhibition, comment on Table F)” value was “greatly diminished activity”. Also, the EC50 in data set [4] is 1320 nM.

As for “D-Lys(C18-alkyl)-spermine [MQTS 3942, reference compound]”, the “mice protected from LPS lethality” value in data set [2] is 5 out of 5.

“L-Lys(C18-alkyl)-spermine [MQTS 3938, reference compound]”: the “mice protected from LPS lethality” value in data set [2] is 5 out of 5.
